How the values were obtained:
[1] = release of N-0923 from the depot form, plasma level and bioavailability; format: in vivo; details: depot formulation according to the invention, read-out: bioavailability of the pharmaceutical composition according to the invention
Description: Sprague-Dawley rats were given subcutaneous bolus injections of an oily N-0923 crystalline suspension of the following composition:
6, 24 and 48 hours after the 2nd and 46th administration plasma samples were taken and the N-0923 concentration was analyzed using LC-MS-MS. The readings from 6 animals were averaged.
The test conditions were identical to those in implementation example 5 except that every 48 hours a dose of 12.5 mg N-0923 per kg body weight was applied.
Readings were taken 2, 4, 8, 24, 32 and 48 hours after the 22nd application and were quantified.

[2] = monkeys, aqueous solution; cited from earlier work
[3] = release of N-0923 from the depots in the monkey, dose versus plasma level; format: in vivo, Cynomolgus monkeys; details: oily crystalline suspensions, FIG. 4, after 3 and 85 daily applications
Description: Cynomolgus monkeys were given daily subcutaneous bolus injections of oily N-0923 crystalline suspensions of the following composition: The application was performed daily in dosages of 0.25, 1 and 4 mg/kg. 2, 6 and 24 hours after the 3rd and 85th application plasma samples were taken and analyzed using LC-MS-MS.

[4] = aqueous solution (5% dextrose); cited from earlier work
[5] = distinct first-pass effect; cited from earlier work

For `CCCN(CCc1cccs1)[C@H]1CCc2c(O)cccc2C1` [N-0923, S(-)-2-(N-propyl-N-2-thienylethylamino)-5-hydroxytetralin], the bioavailability [1] is listed as greater than 70%, the “half-time value after intravenous injection” value [2] is listed as 52 min and the “relation of active-agent plasma levels to the dose introduced in the body” value [3] is listed as “largely linear relation”. The “time for which the subcutaneous injection was effective” value [4] was 60 to 70 min and the “bioavailability after oral administration” value [5] was “about 0.5%”.
